# Results: US9353084B2, “2-amino 3,5,5-trifluoro-3,4,5,6-tetrahydropyridines as BACE1 inhibitors for treatment of Alzheimer's disease” (H. Lundbeck A/S, priority 2014, dated 2016)
# Read-outs that look alike come from different tables or passages of the source.
# Columns and labels:
# human BACE1 = human BACE1 (Homo sapiens (Human), UniProt P56817); experiment: BACE1 binding assay (SPA-based, radioligand displacement); details: pH 4.5, Ki calculated from IC50
# Method: The binding assay was performed as SPA-based assay using a biotinylated form of human BACE1 recombinantly expressed and subsequently purified from Freestyle HEK293 cells. The binding assay was run in a 50 mM sodium acetate buffer, pH 4.5 containing 50 mM NaCl and 0.03% Tween-20 in white clear bottom 384 plates (Corning #3653). 10 nM (final concentration) radioligand ([^3H]—N-((1S,2R)-1-benzyl-3-cyclopropylamino-2-hydroxy-propyl)-5-(methanesulfonyl-methyl-amino)-N—((R)-1-phenyl-ethyl)-isophthalamide) (TRQ11569 purchased from GE Healthcare) was mixed with test compound at a given concentration, 6 nM (final concentration) human BACE1 and 25 μg Streptavidin coated PVT core SPA beads (RPNQ0007, GE Healthcare Life Sciences) in a total volume of 40 μl. Several concentrations of each test compound were tested in the assay for IC50 determination. The plates were incubated for one hour at room temperature and counted in a Wallac Trilux counter. Total and non-specific binding were determined using buffer and 1 μM (final concentration) of the high affinity BACE1 reference inhibitor (S)-6-[3-chloro-5-(5-prop-1-ynyl-pyridin-3-yl)-thiophen-2-yl]-2-imino-3,6-dimethyl-tetrahydro-pyrimidin-4-one, respectively. For each test compound, a IC50 value (the concentration mediating 50% inhibition of the specific binding of the radioligand) was determined from concentration-response curve and used to calculate the Ki from the equation Ki=IC50/(1+L/Kd), where L and Kd are the final concentration of the radioligand used in the assay and the dissociation constant of the radioligand, respectively. The Kd of the radioligand was determined from saturation binding experiments.
# [1] = Brain and plasma exposure in rats after oral dosing (DMPK analysis); type: in vivo; details: male, Sprague Dawley, 3 hours post dose, rat, read-out: Brain/Plasma ratio
# Method: (§1) Young adult Male Sprague Dawley rats of approximately 250 g weight were purchased from Charles River and received 0-30 mg/kg of vehicle (10% HP betaCD+1M MeSO4, pH 2.5) or test compounds (dissolved in vehicle) only by oral gavage (p.o). The compounds are dosed at a volume of 5 ml/kg. Cohorts of 5-10 animals were established for each treatment condition.
# (§2) At T=180 minutes after initial dosing the animals were stunned and decapitated with a guillotine. Trunk-blood was sampled in EDTA coated tubes after decapitation of the animal. The blood was centrifuged at 2200 G at 4° C. for 15 minutes and the plasma was collected and frozen at −80° C. The blood was aliquoted for Aβ ELISA and DMPK analysis Immediately following sacrifice, the brain was extracted and split into 2 halves. The right hemibrains were snap frozen on dry ice and stored at −80° C. The left half was dissected; with the front forebrain taken for Aβ ELISA and the remainder used for DMPK analysis. These samples were also snap frozen on dry ice and stored at −80° C. until use for analysis.
# Compounds 1, 5, 17, 18, and 24 were administered at doses of 10 or 30 mg/kg p.o. and brain and plasma samples were collected at 3 hours post dose and the following exposures and reductions in Aβ40 levels were measured as described above.
# Aβ40 = experiment: Assessment of Aβ40 levels in rat brain and plasma following BACE1 inhibition (ELISA); type: in vivo; details: 3 hours post dose, vs vehicle
# Method: as §1, §2
# The cortex samples were thawed slightly on wet ice before they were homogenized with a small volume dispersing instrument (T10 basic ULTRA-TURRAX®) which was set at speed 5 for approximately 5-7 sec. The tissue was processed in a 10 times volume of the weight, for example 100 mg of tissue was homogenized in 1000 μL of Homogenization buffer. Homogenization buffer: 50 ml Milli Q water+[…]+0.2% Diethylamin (DEA)+1 tablet of Complete Protease inhibitor cocktail+1 nM 4-(2-aminoethyl)benzenesulfonyl fluoride hydrochloride irreversible serine protease inhibitor (AEBSF).
# After homogenization 450 μL aliquots of the samples are collected into a 1.5 ml Eppendorf tube and placed on wet ice, 0.5% NP-40 (50 ul) was added to all samples and then they were incubated on ice for 30 min. After which all samples were sonicated using an Ultrasonic homogenizer with 20 kHz homogeneous sound (SONOPLUS HD2070, Bandelin Electronic) 10 pulse set at 12-13% power to extract all the Aβ species. The samples were then centrifuged (Ole Dich 157 MPRF Micro centrifuge) at 20000 G for 20 minutes at 4° C. After centrifugation 285 μL of the supernatant was pipetted into 600 μL microtubes tubes and neutralized with 15 μL of 1M Tris-HCL buffer.
# WAKO 294-62501 Human/Rat Abeta amyloid (40) kit was used for all ELISA analyses. 30 μL plasma samples or 30 μL of the cortex supernatants generated as described above were placed in 600 μL microtubes tubes on wet ice. To this 30 μL of 8M Urea (AppliChem A1049, 9025) are added to generate a 2-fold dilution. Both plasma and cortex supernatants are incubated on ice for 30 min. Standard rows were prepared from the standard peptide stock provided in the kit and standard diluent containing 1.6M Urea (200 μL 8M Urea+800 μL of standard diluent) and 0.8M Urea (400 μL 8M Urea+3600 μL Standard diluent). A serial 2-fold dilution of Aβ40 from 100 pmol/ml to 0 pmol/L was prepared for the assay.
# After incubation with urea, all samples were further diluted by addition of 5 times standard diluent from the Kit. This was done by adding 240 μL Standard Diluent to 60 μL sample/urea mixture, which was then mixed well. 100 μL of each diluted sample was pipetted into designated wells of the ELISA plate in duplicates. The plate was then covered and incubated overnight at 4° C. The following day, the ELISA kit was brought to room temperature before use. The incubated plate was washed 5 times with the 20× washing solution diluted in Milli Q water. 100 μL HRP-conjugate was applied to each well, and the plate was covered and incubates at 4° C. for 1 hr. The wash was repeated again for 5 times. 100 μL 3,3′,5,5′-Tetramethylbenzidine (TMB) solution was applied to each well and the plate was covered and incubated in the dark at room temperature for 30 minutes. […]
# human BACE1, sequence (P56817 46-501): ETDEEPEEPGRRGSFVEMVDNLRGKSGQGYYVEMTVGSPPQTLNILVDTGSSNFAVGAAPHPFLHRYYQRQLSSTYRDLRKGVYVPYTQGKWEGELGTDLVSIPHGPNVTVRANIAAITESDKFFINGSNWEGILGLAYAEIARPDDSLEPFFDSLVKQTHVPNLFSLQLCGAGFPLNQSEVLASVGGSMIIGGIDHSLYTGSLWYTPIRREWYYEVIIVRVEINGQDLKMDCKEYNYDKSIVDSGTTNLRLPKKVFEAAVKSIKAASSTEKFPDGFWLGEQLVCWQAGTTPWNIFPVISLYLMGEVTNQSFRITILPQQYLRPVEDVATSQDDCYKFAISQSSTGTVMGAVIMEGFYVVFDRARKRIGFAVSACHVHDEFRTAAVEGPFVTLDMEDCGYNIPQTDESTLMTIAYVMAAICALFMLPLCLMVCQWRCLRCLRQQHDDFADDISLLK
SMILES,Ki (human BACE1) [nM],Kp at 3 h ([1]; 10 mg/kg p.o.),Kp at 3 h ([1]; 30 mg/kg p.o.),"Aβ40 reduction, Brain Rat (Aβ40; 10 mg/kg p.o.) [%]","Aβ40 reduction, Plasma Rat (Aβ40; 10 mg/kg p.o.) [%]","Aβ40 reduction, Brain Rat (Aβ40; 30 mg/kg p.o.) [%]","Aβ40 reduction, Plasma Rat (Aβ40; 30 mg/kg p.o.) [%]"
"Cc1cc(C#N)cnc1C(=O)Nc1ccc(F)c([C@@]2(C)N=C(N)[C@@](C)(F)CC2(F)F)c1 [Compound 18, N-(3-((2R,5S)-6-amino-3,3,5-trifluoro-2,5-dimethyl-2,3,4,5-tetrahydropyridin-2-yl)-4-fluorophenyl)-5-cyano-3-methylpicolinamide]",4.3,0.53,0.54,66,54,61,50
"C[C@@]1(F)CC(F)(F)[C@@](C)(c2cc(NC(=O)c3cnc(C(F)F)cn3)ccc2F)N=C1N [Compound 24, N-(3-((2R,5R)-6-amino-3,3,5-trifluoro-2,5-dimethyl-2,3,4,5-tetrahydropyridin-2-yl)-4-fluorophenyl)-5-(difluoromethyl)pyrazine-2-carboxamide]",420,1.39,1.2,15,28,49,61
"C[C@]1(F)CC(F)(F)[C@@](C)(c2cc(NC(=O)c3ccc(F)cn3)ccc2F)N=C1N [Compound 1, N-(3-((2R,5S)-6-amino-3,3,5-trifluoro-2,5-dimethyl-2,3,4,5-tetrahydropyridin-2-yl)-4-fluorophenyl)-5-fluoropicolinamide]",83,,0.62,,,56,41
"COc1cnc(C(=O)Nc2ccc(F)c([C@@]3(C)N=C(N)[C@@](C)(F)CC3(F)F)c2)cn1 [Compound 5, N-(3-((2R,5S)-6-amino-3,3,5-trifluoro-2,5-dimethyl-2,3,4,5-tetrahydropyridin-2-yl)-4-fluorophenyl)-5-methoxypyrazine-2-carboxamide]",18,1.3,1.5,34,34,61,39
"COc1ccc(C(=O)Nc2ccc(F)c([C@@]3(C)N=C(N)[C@@](C)(F)CC3(F)F)c2)nc1 [Compound 17, N-(3-((2R,5S)-6-amino-3,3,5-trifluoro-2,5-dimethyl-2,3,4,5-tetrahydropyridin-2-yl)-4-fluorophenyl)-5-methoxypicolinamide]",11,,1.48,,,63,49
